Laboratory results published in patent publication US20250011365A1, “ECHINOCANDIN-BASED DRUG, AND PREPARATION METHOD THEREFOR AND USE THEREOF” (Shenzhen Sungening Biological Co., Ltd, priority 2023, published 2025).
Converted amounts (≈) assume the structure as drawn. Numbered stars: 1 amine (or outer) side, 2 acyl side, 3 side chain; on linkers, the order of the positions; unused ones are H or OH. Bridge positions count the residues as written; N and C are the ends. Square brackets hold non-standard residues; d marks the D form. Peptide text beside a SMILES is read from it. * marks the point of attachment. Orn(4R-OH,5R-OCH2CH2NMe3+) = C[N+](C)(C)CCO[C@@H](N[*:3])[C@H](O)C[C@H](N[*:1])C(=O)[*:2]; hTyr(3S-OH,4S-OH) = N[C@H](C(=O)O)[C@H](O)[C@@H](O)c1ccc(O)cc1; X2 = CCCCCOc1ccc(C#Cc2ccc3cc(C(=O)*)ccc3c2)c(F)c1F; Pro(3S-OH,4S-Me) = C[C@H]1CN[C@H](C(=O)O)[C@H]1O; Hyp = O=C(O)[C@@H]1C[C@@H](O)CN1

How the values were obtained:
Format in all cases: cell-based
C. glabrata ATCC 15126 = assay: MIC assay, Candida standard strain (CLSI M27-A3); details: Nakaseomyces glabratus, ATCC15126, 24 h, 35° C.
Procedure: (§1) After gradient dilution of test compounds, an MIC assay was performed on a Candida standard strain, and an MEC assay was performed on an Aspergillus standard strain. […] A cryopreserved strain was passaged at least 2 times. A single colony was picked and resuspended in a physiological saline or sterile water tube, and the tube was subjected to vortex shaking. The Candida suspension was adjusted to 0.5 McF (1×10^6-5×10^6 CFU/mL) at a wavelength of 530 nm by using a spectrophotometer. After being diluted 50 times with physiological saline, the Candida suspension was diluted 20 times with 1×RPMI 1640 broth (1×10^3-5×10^3 CFU/mL). 10 μL of the diluted Candida suspension was coated on an SDA plate for colony counting, with a range of about 10-50 single colonies. After a prepared drug sensitive plate was completely dissolved at room temperature, the Candida suspension was added to the 96-well plate by using a multi-channel pipettor at 100 μL/well. At this time, the concentration of Candida in each well should be 0.5×10^3-2.5×10^3 CFU/mL. A yeast-type fungus assay plate was placed in an incubator, and incubated for 24 h at 35° C. and 85% humidity, and then the MIC values were read. For echinocandin-based drugs, Aspergillus was incubated for 21-26 h at 28° C., and then the MEC results were read. Yeast-type fungi: A 96-well plate was attached with a disposable parafilm, shaken for uniformly mixing, and observed with naked eyes by using a plate reader microscope. […] Pictures were taken and saved by using an automated plate reader.

C. krusei ATCC 6258 = assay: MIC assay, Candida standard strain (CLSI M27-A3); details: Pichia kudriavzevii, ATCC6258; C. krusei ATCC 6258 (quality-control strain); 24 h, 35° C.
Procedure: as §1

[1] = test system: C. parapsilosis ATCC 22019; assay: MIC assay, Candida standard strain (CLSI M27-A3); details: Lodderomyces parapsilosis, ATCC22019; C. parapsilosis ATCC 22019 (quality-control strain); 24 h, 35° C.
Procedure: as §1

C. tropicalis ATCC 750 = assay: MIC assay, Candida standard strain (CLSI M27-A3); details: ATCC750, 24 h, 35° C.
Procedure: as §1

[2] = test system: Candida albicans ATCC 10231; assay: MIC assay, Candida standard strain (CLSI M27-A3); details: ATCC10231, 24 h, 35° C., >50% growth inhibition
Procedure: as §1

[3] = test system: Candida albicans ATCC 14053; assay: MIC assay, Candida standard strain (CLSI M27-A3); details: ATCC14053, 24 h, 35° C.
Procedure: as §1

[4] = test system: Candida albicans ATCC 18804; assay: MIC assay, Candida standard strain (CLSI M27-A3); details: ATCC18804, 24 h, 35° C.
Procedure: as §1

[5] = test system: Candida albicans ATCC 64124; assay: MIC assay, Candida standard strain (CLSI M27-A3); details: ATCC64124, 24 h, 35° C.
Procedure: as §1

[6] = test system: Candida albicans ATCC 76485; assay: MIC assay, Candida standard strain (CLSI M27-A3); details: ATCC76485, 24 h, 35° C.
Procedure: as §1

[7] = test system: Candida albicans ATCC 90028; assay: MIC assay, Candida standard strain (CLSI M27-A3); details: ATCC90028, 24 h, 35° C., >50% growth inhibition
Procedure: as §1

[8] = test system: Candida albicans ATCC 90029; assay: MIC assay, Candida standard strain (CLSI M27-A3); details: ATCC90029, 24 h, 35° C.
Procedure: as §1

[9] = test system: Candida albicans ATCC MYA-1023; assay: MIC assay, Candida standard strain (CLSI M27-A3); details: 24 h, 35° C.
Procedure: as §1

[10] = test system: Candida albicans ATCC MYA-2876; assay: MIC assay, Candida standard strain (CLSI M27-A3); details: 24 h, 35° C.
Procedure: as §1

[11] = test system: Candida albicans ATCC MYA-427; assay: MIC assay, Candida standard strain (CLSI M27-A3); details: 24 h, 35° C.
Procedure: as §1

[12] = test system: Candida albicans ATCC MYA-4788; assay: MIC assay, Candida standard strain (CLSI M27-A3); details: 24 h, 35° C.
Procedure: as §1

[13] = test system: Candida albicans ATCC MYA-574; assay: MIC assay, Candida standard strain (CLSI M27-A3); details: 24 h, 35° C.
Procedure: as §1

[14] = test system: Candida albicans CICC 1943; assay: MIC assay, Candida standard strain (CLSI M27-A3); details: CICC1943, 24 h, 35° C.
Procedure: as §1

[15] = test system: Candida albicans CMCC 98001; assay: MIC assay, Candida standard strain (CLSI M27-A3); details: CMCC98001, 24 h, 35° C.
Procedure: as §1

[16] = test system: Aspergillus fumigatus ATCC 204305; assay: MEC assay, Aspergillus standard strain (CLSI M38-A2); details: 21-26 h, 28° C.
Procedure: After gradient dilution of test compounds, an MIC assay was performed on a Candida standard strain, and an MEC assay was performed on an Aspergillus standard strain.
The colonies on the plate were covered with 0.85% physiological saline (1 mL) or sterile water (polysorbate 20 was added to a final concentration of 0.1%-0.01%). […] The resuspension of spore hyphae was transferred to a sterile test tube, and left to stand for 3-5 min to precipitate heavier particles. The homogeneous suspension on the upper layer was transferred to a new sterile test tube, and the tube was capped closely, and subjected to vortex shaking for 15 s (note: the suspension can produce an aerosol when the cap is reopened). The concentration of the suspension was adjusted to an OD value of 0.09-0.13 at 530 nm by using a spectrophotometer. […] Within 2 h after dilution, 100 μL of the diluted suspension was added to each well in a 96-well plate (the concentration of spores in the final drug sensitive plate should be 0.4×10^4-5×10^4 CFU/mL).
In order to accurately determine MEC value, vortex oscillation should not be allowed before reading the plate.

[17] = test system: Pichia guilliermondii ATCC 6260; assay: MIC assay, yeast-type fungi (CLSI M27-A3); details: Meyerozyma guilliermondii, ATCC6260, 24 h, 35° C.
Procedure: as §1

[18] = test system: Cryptococcus neoformans ATCC 208821; assay: MIC assay, yeast-type fungi (CLSI M27-A3); details: ATCC208821, 24 h, 35° C.

| Structure (SMILES) | MIC (C. glabrata ATCC 15126) | MIC (C. krusei ATCC 6258) | MIC [1] | MIC (C. tropicalis ATCC 750) | MIC [2] | MIC [3] | MIC [4] | MIC [5] | MIC [6] | MIC [7] | MIC [8] | MIC [9] | MIC [10] | MIC [11] | MIC [12] | MIC [13] | MIC [14] | MIC [15] | MEC [16] | MIC [17] | further results |
| --- | --- | --- | --- | --- | --- | --- | --- | --- | --- | --- | --- | --- | --- | --- | --- | --- | --- | --- | --- | --- | --- |
| CC[C@H](C)C[C@H](C)CCCCCCCCC(=O)N[C@H]1C[C@@H](O)[C@@H](NCCN)NC(=O)[C@@H]2[C@@H](O)CCN2C(=O)[C@H]([C@H](O)CCN)NC(=O)[C@H]([C@H](O)[C@@H](O)c2ccc(O)cc2)NC(=O)[C@@H]2C[C@@H](O)CN2C(=O)[C@H]([C@@H](C)O)NC1=O [Caspofungin, reference compound] | 0.12 µg/mL (≈ 0.11 µM) | 0.25 µg/mL (≈ 0.229 µM) | 0.5 µg/mL (≈ 0.457 µM) | 0.06 µg/mL (≈ 0.0549 µM) | 0.12 µg/mL (≈ 0.11 µM) | 0.03 µg/mL (≈ 0.0274 µM) | 0.06 µg/mL (≈ 0.0549 µM) | 0.12 µg/mL (≈ 0.11 µM) | 0.06 µg/mL (≈ 0.0549 µM) | 0.12 µg/mL (≈ 0.11 µM) | 0.06 µg/mL (≈ 0.0549 µM) | 0.06 µg/mL (≈ 0.0549 µM) | 0.06 µg/mL (≈ 0.0549 µM) | 0.12 µg/mL (≈ 0.11 µM) | 0.06 µg/mL (≈ 0.0549 µM) | ≤ 0.015 µg/mL | 0.06 µg/mL (≈ 0.0549 µM) | 0.06 µg/mL (≈ 0.0549 µM) | 0.25 µg/mL | 0.12 µg/mL (≈ 0.11 µM) | MIC [18]: 16 µg/mL (≈ 14.6 µM) |
| CCCCCOc1ccc(C#Cc2ccc3cc(C(=O)N[C@H]4C[C@@H](O)[C@@H](OCC[N+](C)(C)C)NC(=O)[C@@H]5[C@@H](O)[C@@H](C)CN5C(=O)[C@H]([C@@H](C)O)NC(=O)[C@H]([C@H](O)[C@@H](O)c5ccc(O)cc5)NC(=O)[C@@H]5C[C@@H](O)CN5C(=O)[C@H]([C@@H](C)O)NC4=O)ccc3c2)c(F)c1F [Example 8] (X2-[Orn(4R-OH,5R-OCH2CH2NMe3+)]T[Hyp][hTyr(3S-OH,4S-OH)]T[Pro(3S-OH,4S-Me)]; lactam 1-C) | 0.06 µg/mL | 0.12 µg/mL | 0.5 µg/mL | ≤ 0.015 µg/mL | 0.03 µg/mL | ≤ 0.015 µg/mL | ≤ 0.015 µg/mL | ≤ 0.015 µg/mL | ≤ 0.015 µg/mL | ≤ 0.015 µg/mL | ≤ 0.015 µg/mL | ≤ 0.015 µg/mL | ≤ 0.015 µg/mL | 0.03 µg/mL | ≤ 0.015 µg/mL | ≤ 0.015 µg/mL | 0.03 µg/mL | ≤ 0.015 µg/mL | 0.03 µg/mL | 0.25 µg/mL | MIC [18]: 8 µg/mL |
